Source: patent US20230381156A1, “TREATMENT OF BREAST CANCER USING COMBINATION THERAPIES COMPRISING GDC-9545 AND IPATASERTIB” (Genentech, Inc., priority 2021, published 2023)

Experiments:
[1] = Human steady-state total drug exposure versus fulvestrant; type: in vivo; conditions: GDC-9545 30 mg QD versus fulvestrant 500 mg IM monthly
ER = biological target: T1, ER (Homo sapiens, UniProt P03372); experiment: Competition with estrogens for binding to the ER
T1 sequence (P03372 1-595): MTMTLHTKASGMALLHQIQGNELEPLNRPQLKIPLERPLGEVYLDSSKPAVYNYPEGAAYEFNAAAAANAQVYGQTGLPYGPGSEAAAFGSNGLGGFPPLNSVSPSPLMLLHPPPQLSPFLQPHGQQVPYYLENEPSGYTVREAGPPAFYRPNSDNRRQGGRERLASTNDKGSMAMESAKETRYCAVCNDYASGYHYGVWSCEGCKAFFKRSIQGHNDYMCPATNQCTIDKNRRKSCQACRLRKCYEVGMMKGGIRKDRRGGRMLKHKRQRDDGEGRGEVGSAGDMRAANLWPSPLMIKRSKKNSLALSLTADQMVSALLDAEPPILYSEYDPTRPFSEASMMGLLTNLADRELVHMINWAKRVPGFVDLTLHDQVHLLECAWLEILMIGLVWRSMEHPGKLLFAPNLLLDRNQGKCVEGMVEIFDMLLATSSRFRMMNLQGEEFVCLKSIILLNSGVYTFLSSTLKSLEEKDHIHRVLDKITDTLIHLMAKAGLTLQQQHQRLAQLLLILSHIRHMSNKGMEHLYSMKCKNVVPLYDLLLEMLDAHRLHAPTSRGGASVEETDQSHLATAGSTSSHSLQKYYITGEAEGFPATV

[2] = test system: ER (wild-type and ESR1-mutant contexts); experiment: In vitro cell and biochemical assays, potency versus fulvestrant
[3] = test system: ER+ breast cancer models of ESR1-wild type and ESR1-mutation-bearing disease; experiment: Xenograft models / ER+ breast cancer models
[4] = Plasma protein binding / free concentration versus fulvestrant; type: in vitro ADME
frontline patients = conditions: NCT01602380; cited from earlier work
[5] = test system: CDK4/6i-resistant breast cancer cell line; conditions: Iida et al. 2020; cited from earlier work

SMILES: C[C@@H]1Cc2c([nH]c3ccccc23)[C@@H](c2c(F)cc(NC3CN(CCCF)C3)cc2F)N1CC(F)(F)CO [GDC-9545, 3-((1R,3R)-1-(2,6-difluoro-4-((1-(3-fluoropropyl)azetidin-3-yl)amino)phenyl)-3-methyl-1,3,4,9-tetrahydro-2H-pyrido[3,4-b]indol-2-yl)-2,2-difluoropropan-1-ol]
- human steady-state total drug exposure relative to fulvestrant [1]: approximately 10 fold
- potency of competition with estrogens for binding to the ER (ER): low nanomolar potency
- potency relative to fulvestrant [2]: up to 10 times
- nonclinical activity in ER+ breast cancer models ([3]; ESR1-wild type and ESR1-mutation-bearing disease): robust nonclinical activity
- free concentration compared with fulvestrant [4]: higher
- plasma protein binding compared with fulvestrant [4]: lower

SMILES: C[C@]12CC[C@@H]3c4ccc(O)cc4C[C@@H](CCCCCCCCC[S+]([O-])CCCC(F)(F)C(F)(F)F)[C@H]3[C@@H]1CC[C@@H]2O (stereo partly shown) [Fulvestrant, reference compound]
- clinical benefit versus anastrozole (frontline patients): benefit over anastrozole
- efficacy in xenograft models compared with GDC-9545 ([3]; fulvestrant dosed according to a clinically relevant dosing scheme): less efficacious than GDC-9545

SMILES: CO[C@H]1C[C@@H]2CC[C@@H](C)[C@@](O)(O2)C(=O)C(=O)N2CCCC[C@H]2C(=O)O[C@H]([C@H](C)C[C@@H]2CC[C@@H](OCCO)[C@H](OC)C2)CC(=O)[C@H](C)/C=C(\C)[C@@H](O)[C@@H](OC)C(=O)[C@H](C)C[C@H](C)/C=C/C=C/C=C/1C [everolimus]
- response of resistant cells in cell growth analysis [5]: remain responsive

SMILES: Cc1nc(NC(=O)N2CCC[C@H]2C(N)=O)sc1-c1ccnc(C(C)(C)C(F)(F)F)c1 [alpelisib]
- response of resistant cells in cell growth analysis [5]: remain responsive
